In patent US9113629B2, “4-amino-6-(4-substituted-phenyl)-picolinates and 6-amino-2-(4-substituted-phenyl)-pyrimidine-4-carboxylates and their use as herbicides” (DOW AGROSCIENCES LLC, priority 2013, dated 2015):
Like-named read-outs stand apart in the source and are kept apart here. Blank lines part the entries; values can stand above or below the compound they belong to.

Experiments:
[1] = test system: KCHSC: kochia (Kochia scoparia); test: Post-emergent Test III, herbicidal activity in wheat and barley; format: in vivo; conditions: for pest or weed control at 35 g/ha / pest or weed control at 70 g/ha: Bassia scoparia, post-emergence, 504 h; for pest or weed control at 35 g/ha: 35 g ai/ha; for pest or weed control at 70 g/ha: 70 g ai/ha; for GR50 KCHSC: dose for 50 percent growth reduction; for GR50 KCHSC / GR80 KCHSC: probit analysis; for GR80 KCHSC: dose for 80 percent growth reduction
Procedure: (§1) Post-emergent Test III. Seeds of the desired test plant species were planted in Sun Gro MetroMix® 306 planting mixture, which typically has a pH of 6.0 to 6.8 and an organic matter content of about 30 percent, in plastic pots with a surface area of 103.2 square centimeters (cm^2). When required to ensure good germination and healthy plants, a fungicide treatment and/or other chemical or physical treatment was applied. The plants were grown for 7-36 days (d) in a greenhouse with an approximate 14 hour (h) photoperiod which was maintained at about 18° C. during the day and 17° C. during the night. Nutrients and water were added on a regular basis and supplemental lighting was provided with overhead metal halide 1000-Watt lamps as necessary. The plants were employed for testing when they reached the second or third true leaf stage.
(§2) A weighed amount, determined by the highest rate to be tested, of each test compound was placed in a 25 mL glass vial and was dissolved in 4 mL of a 97:3 v/v mixture of acetone and DMSO to obtain concentrated stock solutions. […] The concentrated stock solutions obtained were diluted with 20 mL of an aqueous mixture containing acetone, water, isopropyl alcohol, DMSO, Agri-Dex crop oil concentrate, and X-77 surfactant in a 48:39:10:1.5:1.5:0.02 v/v ratio to obtain spray solutions containing the highest application rates. Additional application rates were obtained by serial dilution of 12 mL of the high rate solution into a solution containing 2 mL of 97:3 v/v mixture of acetone and DMSO and 10 mL of an aqueous mixture containing acetone, water, isopropyl alcohol, DMSO, Agri-Dex crop oil concentrate, and X-77 surfactant in a 48:39:10:1.5:1.5:0.02 v/v ratio to obtain ½×, ¼×, ⅛× and 1/16× rates of the high rate. Compound requirements are based upon a 12 mL application volume at a rate of 187 liters per hectare (L/ha). Formulated compounds were applied to the plant material with an overhead Mandel track sprayer equipped with 8002E nozzles calibrated to deliver 187 L/ha over an application area of 0.503 square meters at a spray height of 18 inches (43 cm) above the average plant canopy height. Control plants were sprayed in the same manner with the solvent blank.
(§3) The treated plants and control plants were placed in a greenhouse as described above and watered by subirrigation to prevent wash-off of the test compounds. After 21 d, the condition of the test plants as compared with that of the untreated plants was determined visually and scored on a scale of 0 to 100 percent where 0 corresponds to no injury and 100 corresponds to complete kill.
(§4) By applying the well-accepted probit analysis as described by J. Berkson in Journal of the American Statistical Society, 48, 565 (1953) and by D. Finney in “Probit Analysis” Cambridge University Press (1952), herbicidal injury of a specific compound at various rates can be used to calculate GR20, GR50, GR80 and GR90 values, which are defined as growth reduction factors that correspond to the effective dose of herbicide required to provide plant growth reduction (GR) of 20 percent, 50 percent, 80 percent and 90 percent, respectively. Probit analysis was applied to data collected from multiple dose rates of individual compounds utilizing the procedures explained in the following examples. The analysis of those dose rates is captured in the following tables.

[2] = test system: TRZSS: wheat, including spring and winter (Triticum aestivum); test: as above; format: in vivo; conditions: for GR20 TRZSS: probit analysis; for pest or weed control at 35 g/ha / pest or weed control at 70 g/ha: Triticum aestivum, post-emergence, 504 h; for pest or weed control at 35 g/ha: 35 g ai/ha; for pest or weed control at 70 g/ha: 70 g ai/ha
Procedure: as §1, §2, §3, §4

[3] = test system: MATSS: scented mayweed (Matricaria chamomilla), pineappleweed (Matricaria matricarioides); test: as above; format: in vivo; conditions: for pest or weed control at 35 g/ha / pest or weed control at 70 g/ha: Matricaria chamomilla, post-emergence, 504 h; for pest or weed control at 35 g/ha: 35 g ai/ha; for pest or weed control at 70 g/ha: 70 g ai/ha; for GR50 MATSS: dose for 50 percent growth reduction; for GR50 MATSS / GR80 MATSS: probit analysis; for GR80 MATSS: dose for 80 percent growth reduction
Procedure: as §1, §2, §3, §4

[4] = test system: HORSS: barley, including spring and winter (Hordeum vulgare); test: as above; format: in vivo; conditions: for pest or weed control at 35 g/ha / pest or weed control at 70 g/ha: Hordeum vulgare, post-emergence, 504 h; for pest or weed control at 35 g/ha: 35 g ai/ha; for pest or weed control at 70 g/ha: 70 g ai/ha; for GR20 HORSS: probit analysis
Procedure: as §1, §2, §3, §4

[5] = Table 8, post-emergent, 21 d, read-out: Visual Growth Reduction (%) 21 Days After Application KCHSC
[6] = Table 8, dose for 20 percent growth reduction, 21 d
[7] = Table 8, post-emergent, 21 d, read-out: Visual Growth Reduction (%) 21 Days After Application TRZSS
[8] = Table 8, post-emergent, 21 d, read-out: Visual Growth Reduction (%) 21 Days After Application MATSS
[9] = Table 8, post-emergent, 21 d, read-out: Visual Growth Reduction (%) 21 Days After Application HORSS
[10] = 21 days after application, read-out: Visual Gorowth Reduction (%) 21 days After Application KCHSC
[11] = 21 days after application, read-out: Visual Gorowth Reduction (%) 21 days After Application TRZSS
[12] = dose for 20 percent growth reduction (crop), 21 days after application
[13] = 21 days after application, read-out: Visual Gorowth Reduction (%) 21 days After Application MATSS
[14] = 21 days after application, read-out: Visual Gorowth Reduction (%) 21 days After Application HORSS

melting point: 121 to 124 °C
Compound: COC(=O)c1nc(-c2ccc(I)c(F)c2)c(C)c(N)c1Cl [Compound 79, Methyl 4-amino-3-chloro-6-(3-fluoro-4-iodophenyl)-5-methylpicolinate]
pest or weed control at 35 g/ha [1, 5]: 60 to 74%
pest or weed control at 70 g/ha [1, 5]: 75 to 84%
GR50 KCHSC ([1]; Table 8, 21 d): 24 g ai/ha
GR80 KCHSC ([1]; Table 8, 21 d): 70 g ai/ha
GR20 TRZSS [2, 6]: 2 g ai/ha
pest or weed control at 35 g/ha [2, 7]: 75 to 84%
pest or weed control at 70 g/ha [2, 7]: 85 to 94%
pest or weed control at 35 g/ha [3, 8]: 75 to 84%
pest or weed control at 70 g/ha [3, 8]: 85 to 94%
GR50 MATSS ([3]; Table 8, 21 d): 13 g ai/ha
GR80 MATSS ([3]; Table 8, 21 d): 46 g ai/ha
pest or weed control at 35 g/ha [4, 9]: 85 to 94%
pest or weed control at 70 g/ha [4, 9]: 85 to 94%
GR20 HORSS [4, 6]: 1 g ai/ha

melting point: 98.9 to 101.6 °C
Compound: COC(=O)c1nc(-c2ccc(Br)cc2F)cc(N)c1Cl [Compound 93]

melting point: 172 to 174 °C
Compound: Nc1cc(-c2cc(F)c(Br)cc2F)nc(C(=O)O)c1Cl [Compound 3]
pest or weed control at 35 g/ha [1, 5]: 95 to 100%
pest or weed control at 70 g/ha [1, 5]: 95 to 100%
GR50 KCHSC ([1]; Table 8, 21 d): 2 g ai/ha
GR80 KCHSC ([1]; Table 8, 21 d): 8 g ai/ha
GR20 TRZSS [2, 6]: 1 g ai/ha
pest or weed control at 35 g/ha [2, 7]: 85 to 94%
pest or weed control at 70 g/ha [2, 7]: 85 to 94%
pest or weed control at 35 g/ha [3, 8]: 95 to 100%
pest or weed control at 70 g/ha [3, 8]: 95 to 100%
GR50 MATSS ([3]; Table 8, 21 d): 4 g ai/ha
GR80 MATSS ([3]; Table 8, 21 d): 11 g ai/ha
pest or weed control at 35 g/ha [4, 9]: 85 to 94%
pest or weed control at 70 g/ha [4, 9]: 95 to 100%
GR20 HORSS [4, 6]: 1 g ai/ha

melting point: 141 to 143 °C
Compound: COC(=O)c1nc(-c2ccc(I)c(F)c2)cc(N)c1Cl [Compound 66, methyl 4-amino-3-chloro-6-(3-fluoro-4-iodophenyl)picolinate]

melting point: 192 to 195 °C
Compound: COC(=O)c1nc(-c2ccc(C(N)=O)cc2)c(F)c(N)c1Cl [Compound 192]

melting point: 120 to 122 °C
Compound: C=Cc1c(C(=O)O)nc(-c2ccc(C(F)(F)F)c(F)c2)c(F)c1N [Compound 86]
pest or weed control at 35 g/ha [1, 10]: 75 to 84%
pest or weed control at 70 g/ha [1, 10]: 75 to 84%
GR50 KCHSC ([1]; 21 days after application): 12 g ai/ha
GR80 KCHSC ([1]; 21 days after application): 55 g ai/ha
pest or weed control at 35 g/ha [2, 11]: 60 to 74%
pest or weed control at 70 g/ha [2, 11]: 60 to 74%
GR20 TRZSS [2, 12]: 1 g ai/ha
pest or weed control at 35 g/ha [3, 13]: 60 to 74%
pest or weed control at 70 g/ha [3, 13]: 60 to 74%
GR50 MATSS ([3]; 21 days after application): 22 g ai/ha
GR80 MATSS ([3]; 21 days after application): 85 g ai/ha
pest or weed control at 35 g/ha [4, 14]: 30 to 44%
pest or weed control at 70 g/ha [4, 14]: 30 to 44%
GR20 HORSS [4, 12]: 14 g ai/ha

melting point: 118 to 120 °C
Compound: C=Cc1c(C(=O)OC)nc(-c2ccc(C(F)(F)F)c(F)c2F)c(F)c1N [Compound 53, methyl 4-amino-6-(2,3-difluoro-4-(trifluoromethyl)phenyl)-5-fluoro-3-vinylpicolinate]

melting point: 166.4 to 169 °C
Compound: COC(=O)c1nc(-c2ccc(OC(F)F)cc2)cc(N)c1Cl [Compound 23]

melting point: 132 to 133 °C
Compound: COc1c(N)nc(-c2cc(F)c(Br)cc2F)nc1C(=O)O [Compound 11]

melting point: 173 to 175 °C
Compound: Nc1cc(-c2cc(F)c(I)cc2F)nc(C(=O)O)c1Cl [Compound 131]

melting point: 115 to 118 °C
Compound: COC(=O)c1nc(-c2ccc(I)cc2)c(C)c(N)c1Cl [Compound 136, methyl 4-amino-3-chloro-6-(4-iodophenyl)-5-methylpicolinate]

melting point: 208.4 to 210.2 °C
Compound: Nc1cc(-c2ccc(I)cc2F)nc(C(=O)O)c1Cl [Compound 124]
pest or weed control at 35 g/ha [1, 5]: 85 to 94%
pest or weed control at 70 g/ha [1, 5]: 85 to 94%
GR50 KCHSC ([1]; Table 8, 21 d): 3 g ai/ha
GR80 KCHSC ([1]; Table 8, 21 d): 29 g ai/ha
GR20 TRZSS [2, 6]: 1 g ai/ha
pest or weed control at 35 g/ha [2, 7]: 85 to 94%
pest or weed control at 70 g/ha [2, 7]: 85 to 94%
pest or weed control at 35 g/ha [3, 8]: 75 to 84%
pest or weed control at 70 g/ha [3, 8]: 85 to 94%
GR80 MATSS ([3]; Table 8, 21 d): 32 g ai/ha
pest or weed control at 35 g/ha [4, 9]: 85 to 94%
pest or weed control at 70 g/ha [4, 9]: 95 to 100%
GR20 HORSS [4, 6]: 1 g ai/ha

melting point: 93 to 94 °C
Compound: C=Cc1c(C(=O)OC)nc(-c2ccc(Br)cc2)c(F)c1N [Compound 57, methyl 4-amino-6-(4-bromophenyl)-5-fluoro-3-vinylpicolinate]

melting point: 158.5 to 159.5 °C
Compound: Cc1c(-c2ccc(OC(F)F)cc2)nc(C(=O)O)c(Cl)c1N [Compound 94, 4-Amino-3-chloro-6-(4-(difluoromethoxy)phenyl)-5-methylpicolinic acid]

melting point: 179.5 to 181 °C
Compound: Cc1c(-c2ccc(I)cc2)nc(C(=O)O)c(Cl)c1N [Compound 116, 4-Amino-3-chloro-6-(4-iodophenyl)-5-methylpicolinic acid]

melting point: 158.9 to 161.2 °C
Compound: C#Cc1ccc(-c2cc(N)c(Cl)c(C(=O)OC)n2)cc1 [Compound 126]

melting point: 174 to 176 °C
Compound: COC(=O)c1nc(-c2cc(F)c(Br)cc2F)cc(N)c1Cl [Compound 127, methyl 4-amino-6-(4-bromo-2,5-difluorophenyl)-3-chloropicolinate]

melting point: 159 to 161 °C
Compound: Nc1c(F)c(-c2cc(F)c(I)cc2F)nc(C(=O)O)c1Cl [Compound 69]
pest or weed control at 35 g/ha [1, 10]: 85 to 94%
pest or weed control at 70 g/ha [1, 10]: 85 to 94%
GR50 KCHSC ([1]; 21 days after application): 5 g ai/ha
GR80 KCHSC ([1]; 21 days after application): 19 g ai/ha
pest or weed control at 35 g/ha [2, 11]: 85 to 94%
pest or weed control at 70 g/ha [2, 11]: 85 to 94%
GR20 TRZSS [2, 12]: 1 g ai/ha
pest or weed control at 35 g/ha [3, 13]: 75 to 84%
pest or weed control at 70 g/ha [3, 13]: 85 to 94%
GR50 MATSS ([3]; 21 days after application): 5 g ai/ha
GR80 MATSS ([3]; 21 days after application): 29 g ai/ha
pest or weed control at 35 g/ha [4, 14]: 85 to 94%
pest or weed control at 70 g/ha [4, 14]: 95 to 100%
GR20 HORSS [4, 12]: 1 g ai/ha

melting point: 134 to 137 °C
Compound: COC(=O)c1nc(-c2ccc(Br)c(F)c2)c(C)c(N)c1Cl [Compound 112, Methyl 4-amino-6-(4-bromo-3-fluorophenyl)-3-chloro-5-methylpicolinate]
